Data from patent publication US20260048046A1, “METHOD FOR IMPROVING GROWTH PERFORMANCE IN FEEDLOT CATTLE” (Elanco US Inc., priority 2022, published 2026).

Test system: beef feedlot cattle
Assay: 56-d study: growth performance
Type: in vivo
Design: Average daily dry matter (DMI) / Average daily dry matter (DMI), difference from control: unit not given here
Settings: for Average daily dry matter (DMI) / Average daily gain (ADG) / Gain:feed, ADG:DMI / Final BW: 56 d treatment, steers, LS mean; for Final BW: initial weight as covariate
Experimental: This example describes a randomized complete block study that evaluated LUB dose (0, 1.5, 3.5, and 5.5 mg kg^−1 dry matter) during the last 56 d of the feeding period on live weight, carcass weight, and associated ratios in beef feedlot cattle. Carcass characteristics, mobility, and health were also evaluated. All cattle received monensin and tylosin throughout the study.
A randomized complete block design was used to evaluate the effects of LUB on calculated growth performance of 2,880 British and Continental European crossbred steers typical for U.S. feedlots. Bos indicus breeding was limited to less than ⅛. The study evaluated four
LUB doses: 0 (control, CON), 1.5, 3.5, and 5.5 mg·kg^−1 DM. There were 12 blocks, each block containing four replicate pens that started LUB feeding on the same date. Steers were randomized within each block of four pens with 60 steers per pen, resulting in a total of 720 steers enrolled in each treatment. LUB feeding started on Jun. 24, 2018, Jul. 1, 2018, and Jul. 15, 2018, four blocks on each date.
Beginning no later than approximately d −70, animals were fed a diet containing Rumensin (monensin 46.3 mg·kg^−1 100% DM basis; Elanco, Greenfield, IN, USA) and Tylan (tylosin 8.9 mg·kg^−1 100% DM basis; Elanco) ad libitum. Cattle in the LUB treatments were switched from the basal finishing ration to the finishing ration containing the appropriate concentrations of LUB Type A premix at the start of the treatment period (d −57). Table 5 lists the composition and the formulated nutrient composition of the finishing diet. The diet was designed to meet or exceed the minimum nutrient requirements cited in Nutrient Requirements of Beef Cattle (NASEM, 2016). LUB was delivered to the cattle using a 1% LUB Type A premix prepared and delivered by Elanco (Clinton Laboratories, Clinton, IN, USA), and the ration was prepared on-site at the research facility. The 1% Type A premix was delivered into the ration by flushing the 1% Type A premix through a micro-ingredient machine (Micro Technologies, Amarillo, TX) with water, which was included at approximately 27 kg of the “as-fed” ration, for each 3,629 kg batch. The 1% Type A premix was included in the finishing ration at 0, 0.0154%, 0.0353%, or 0.0551% (100% DM) to provide CON, 1.5, 3.5, or 5.5 mg·kg^−1 LUB (100% DM). The on-site feed mixers used to mix (stationary horizontal paddle mixer [Cactus Varied Industries, Amarillo, TX, USA]) and deliver (Roto-Mix 490-14 and Roto-Mix 620-16, Roto-Mix LLC, Dodge City, KS) the Type C feed were qualified to confirm that the ration could be mixed homogeneously before feeding medicated feed. Cattle were fed in order of CON, 1.5, 3.5, or 5.5 mg·kg^−1 doses of LUB. Prior to mixing the CON batches, the mixer was flushed with appropriate amount of non-medicated feed or other cattle feed to assure no carryover of test compound. Feed was issued three times each day at approximately the same time each day. Bunk calls were made at the time of first feeding and amount of feed issued for the third feeding was adjusted based on daily bunk calls according to site procedures. The feeding goal was to have slick bunks prior to the first feeding and approximately ⅓ of the cattle at the bunk, ⅓ of the cattle moving to the bunk, and ⅓ of the cattle not moving to the bunk at time of first feeding. Water was available ad libitum throughout the study. The weight of feed issued was recorded and electronic feed records were provided for data analysis.
Animals were weighed individually at the time of randomization (approximately d −69 to d −66) and this weight was used to exclude steers with extreme BW from the trial. All other BW (unshrunk) were collected by pen and used for calculation of growth performance. Scheduled pen weights were taken prior to feed delivery and collected on d −59 (2 d before treatment start, which was considered the treatment start weight) and d 0 (1 d after the end of treatment, which was considered the treatment end weight). […]

[1] = steers fed LUB (doses pooled), 56 d

CC(C)(Cc1ccc(Oc2ncccc2C#N)cc1)NC[C@H](O)COc1ccccc1-c1cccs1 [LUB, 2-{4-[2-({(2S)-2-Hydroxy-3-[2-(2-thienyl)phenoxy]propyl}amino)-2-methylpropyl]phenoxy}nicotinonitrile]
Average daily dry matter (DMI), difference from control (1.5 mg·kg^−1 vs. control, 56 d): 0.2
Average daily dry matter (DMI), percent change from Control (1.5 mg·kg^−1 vs. control, 56 d): 2.0%
Average daily gain (ADG), difference from control (1.5 mg·kg^−1 vs. control, 56 d): 0.19 kg
Average daily gain (ADG), percent change from Control (1.5 mg·kg^−1 vs. control, 56 d): 11.3%
Final BW, difference from control (1.5 mg·kg^−1 vs. control, 56 d): 11.6 kg
Final BW, percent change from Control (1.5 mg·kg^−1 vs. control, 56 d): 1.7%
Gain:feed, ADG:DMI, difference from control (1.5 mg·kg^−1 vs. control, 56 d): 0.015
Gain:feed, ADG:DMI, percent change from Control (1.5 mg·kg^−1 vs. control, 56 d): 9.0%
Average daily dry matter (DMI), difference from control (3.5 mg·kg^−1 vs. control, 56 d): 0.3
Average daily dry matter (DMI), percent change from Control (3.5 mg·kg^−1 vs. control, 56 d): 3.0%
Average daily gain (ADG), difference from control (3.5 mg·kg^−1 vs. control, 56 d): 0.26 kg
Average daily gain (ADG), percent change from Control (3.5 mg·kg^−1 vs. control, 56 d): 15.5%
Final BW, difference from control (3.5 mg·kg^−1 vs. control, 56 d): 15.7 kg
Final BW, percent change from Control (3.5 mg·kg^−1 vs. control, 56 d): 2.4%
Gain:feed, ADG:DMI, difference from control (3.5 mg·kg^−1 vs. control, 56 d): 0.028
Gain:feed, ADG:DMI, percent change from Control (3.5 mg·kg^−1 vs. control, 56 d): 12.0%
Average daily dry matter (DMI), difference from control (5.5 mg·kg^−1 vs. control, 56 d): 0.2
Average daily dry matter (DMI), percent change from Control (5.5 mg·kg^−1 vs. control, 56 d): 2.0%
Average daily gain (ADG), difference from control (5.5 mg·kg^−1 vs. control, 56 d): 0.24 kg
Average daily gain (ADG), percent change from Control (5.5 mg·kg^−1 vs. control, 56 d): 14.3%
Final BW, difference from control (5.5 mg·kg^−1 vs. control, 56 d): 14.3 kg
Final BW, percent change from Control (5.5 mg·kg^−1 vs. control, 56 d): 2.1%
Gain:feed, ADG:DMI, difference from control (5.5 mg·kg^−1 vs. control, 56 d): 0.019
Gain:feed, ADG:DMI, percent change from Control (5.5 mg·kg^−1 vs. control, 56 d): 11.4%
Average daily dry matter (DMI) (LUB 1.5 mg·kg^−1 DM): 10.3
Average daily gain (ADG) (LUB 1.5 mg·kg^−1 DM): 1.87 kg
Gain:feed, ADG:DMI (LUB 1.5 mg·kg^−1 DM): 0.182
Final BW (LUB 1.5 mg·kg^−1 DM): 679.0 kg
Average daily dry matter (DMI) (LUB 3.5 mg·kg^−1 DM): 10.4
Average daily gain (ADG) (LUB 3.5 mg·kg^−1 DM): 1.94 kg
Gain:feed, ADG:DMI (LUB 3.5 mg·kg^−1 DM): 0.187
Final BW (LUB 3.5 mg·kg^−1 DM): 683.1 kg
Average daily dry matter (DMI) (LUB 5.5 mg·kg^−1 DM): 10.3
Average daily gain (ADG) (LUB 5.5 mg·kg^−1 DM): 1.92 kg
Gain:feed, ADG:DMI (LUB 5.5 mg·kg^−1 DM): 0.186
Final BW (LUB 5.5 mg·kg^−1 DM): 681.7 kg
Average daily gain [1]: 1.91 kg
Average daily gain greater than control [1]: 13.7%
Gain efficiency [1]: 0.185
Gain efficiency greater than control [1]: 10.8%
Daily dry matter intake greater than control (steers that received LUB (doses pooled), 56 d): 2.3%
